Test results from US20260248922A1, “TREATMENT OF SIGNS, SYMPTOMS AND/OR COMPLICATIONS OF VIRAL, BACTERIAL, PROTOZOAL, AND/OR FUNGAL INFECTIONS BY HIGH PENETRATION PRODRUGS” (priority 2022, published 2026).

Key:
COVID-19 [1] = assay: Phase 2 placebo-controlled study in COVID-19 infection in hospitalized adults (Example 81); format: in vivo, human; conditions: hospitalized COVID-19 patients, 7% solution in 15% ethanol sprayed on skin BID for 28 days
Description: Patients cannot be enrolled or randomized before all eligibility criteria (including test results) are confirmed.
Inclusion criteria: • 1. Admitted to a hospital with pulmonary symptoms of active COVID-19. • 2. Patient (or legally authorized representative) provides informed consent prior to initiation of any study procedures. • 3. Patient (or legally authorized representative) understands and agrees to comply with planned study procedures. • 4. Male or nonpregnant female adult ≥18 years of age at time of enrollment. • 5. Has laboratory confirmed severe acute respiratory syndrome coronavirus 2 (COVID-19) infection as determined by polymerase chain reaction (PCR) or other commercial or public health assay (serology is not acceptable) in any specimen, as documented by either of the following: • a. Laboratory confirmed COVID-19 infection by method as defined above, in sample collected <72 hours prior to randomization; OR • b. […] Has a room-air SpO2<93% and a score of 4 (hospitalized, oxygen by mask or nasal prongs), or room-air SpO2<93% and a score of 5 (hospitalized, noninvasive ventilation or high-flow oxygen), or a score 6 (hospitalized, intubation and mechanical ventilation) in the ordinal scale, which specifically is as follows: • 0) Uninfected, no clinical or virological evidence of infection • 1) Ambulatory (not diagnosed), no limitations of activities. • 2) Ambulatory (not diagnosed), limitation on activities and/or requiring home oxygen • 3) Diagnosed (mild disease), no requiring supplemental oxygen; • 4) Diagnosed (moderate disease), requiring supplemental oxygen (by mask or nasal prongs)—requiring ongoing medical care (COVID-19 related or otherwise); • 5) Diagnosed (severe disease), non-invasive ventilation or high-flow oxygen; • 6) Diagnosed (severe disease), intubation and mechanical ventilation; • 7) Diagnosed (severe disease), ventilation+additional organ support-pressors, RRT, or extracorporeal membrane oxygenation (ECMO); • 8) Death. • 7. […]

COVID-19 [2] = assay: COVID-19 infection mouse model (Example 70); format: in vivo, hACE2 mice; conditions: transdermal once a day
Method: (§1) A total of seventy hACE2 mice (7 groups, 10/group) were used in this study. At day 0, mice were anesthetized with isoflurane and held in a dorsal recumbent position for administration of 3×10 PFU/mouse COVID-19 by internasal instillation, from day 1 post challenge, mice were received a single dose of different concentrations of test article or vehicle control once a day up to 15th day with dose initiation on day 1 post challenge. Group 1 served as an infected control group and was treated with vehicle (35% ethanol). […] Mice were observed following viral challenge for clinical signs of illness including body weights, health score, morbidity and mortality.
Lung lesions and peribronchiolitis of all deceased and surviving animals were characterized (Table 17).

LPS-induced fever = assay: Antipyretic activity, fever induced by LPS in rats; format: in vivo, Sprague Dawley rats; conditions: transdermal, 20 mg/kg
Method: The body temperature of rats was taken at 0 (2 hours after the challenge), 90 min, 180 min, and 270 min after the administration of the test compounds.

MRSA = assay: Sepsis model of MRSA infection in mice (Example 79); format: in vivo, C57/BL6 mice; conditions: transdermal once a day
Description: as §1, with “C57/BL6” for “hACE2”, “2×10^7CFU S. aureus” for “3×10 PFU/mouse COVID-19”, “intraperitoneal (IP) injections,” for “internasal instillation,”, “hour 2” for “day 1”, “MRSA” for “viral”

H1N1 virus = H1N1 virus infection mouse model (Example 65); format: in vivo, mice; conditions: transdermal once a day
Method: as §1, with “seventy” for “seventy hACE2”, “of 0.1×TCID50/mouse virus (new batch)” for “of 3×10 PFU/mouse COVID-19”, “day 2” for “day 1”
Lung lesions and peribronchiolitis of all deceased and surviving animals were characterized (Table 7).

[3] = tested on: cecal slurry-induced sepsis; assay: Cecal slurry-induced sepsis mouse model (Example 75); format: in vivo, C57/BL6 mice; conditions: transdermal once a day
Method: as §1, with “C57/BL6” for “hACE2”, “10 mg/mouse cecal slurry” for “3×10 PFU/mouse COVID-19”, “intraperitoneal (IP) injections,” for “internasal instillation,”, “hour 2” for “day 1”

paw edema = assay: Antiinflammatory activity, carrageenan paw edema in rats; format: in vivo, Wistar Rats; conditions: transdermal, 20 mg/kg
[4] = Skin penetration through rabbit skin in vitro, modified Franz cells; conditions: receiving fluid pure water
[5] = T = 0 min (2 hours after LPS challenge)
[6] = 2 h (before test articles treatment)
[7] = 6 h (4 hours after administration)
[8] = time 0 (before carrageenan challenge)

CCN(CC)CCOC(=O)c1ccccc1OC(C)=O.Cl [Example 4]
hospital stay time, average (COVID-19 [1]): about 4 days | time to an improvement of 2 categories using 9-point ordinal scale, average (COVID-19 [1]): about 3 days | time to maintain peripheral capillary oxygen saturation (SpO2) of >93% without oxygen support, average (COVID-19 [1]): about 3 days

COc1ccc2cc(C(C)C(=O)OCC3CCCN3)ccc2c1.Cl (stereo not shown) [Example 16, (pyrrolidin-2-yl)methyl 2-(6-methoxy-2-naphthyl) propanoate hydrochloride]
survival (COVID-19 [2]; group 2, low dose 25.1 mg/kg): 30% | survival (COVID-19 [2]; group 3, mid dose 50.2 mg/kg): 50% | survival (COVID-19 [2]; group 4, high dose 100.3 mg/kg): 50% | body temperature (Mean) (LPS-induced fever; [5]): 38.30 | body temperature (Mean) (LPS-induced fever; T = 90 min): 37.38 | body temperature (Mean) (LPS-induced fever; T = 180 min): 36.79 | body temperature (Mean) (LPS-induced fever; T = 270 min): 36.53 | survival (MRSA; group 2, low dose 25.1 mg/kg): 20% | survival (MRSA; group 3, mid dose 50.2 mg/kg): 30% | survival (MRSA; group 4, high dose 100.3 mg/kg): 40% | survival (H1N1 virus; group 2, low dose 25.1 mg/kg): 20% | survival (H1N1 virus; group 3, mid dose 50.2 mg/kg): 20% | survival (H1N1 virus; group 4, high dose 100.3 mg/kg): 40%

CC(C(=O)OCC1CCCN1)c1cccc(Oc2ccccc2)c1.Cl (stereo not shown) [Example 30, (pyrrolidin-2-yl)methyl 2-(3-phenoxyphenyl) propionate hydrochloride]
survival ([3]; group 2, low dose 25.1 mg/kg): 10% | survival ([3]; group 3, mid dose 50.2 mg/kg): 30% | survival ([3]; group 4, high dose 100.3 mg/kg): 40%

CCN(CC)CCOC(=O)C(C)c1ccc(CC(C)C)cc1.Cl (stereo not shown) [Example 2]
survival (COVID-19 [2]; group 5, low dose 24.6 mg/kg): 60% | survival (COVID-19 [2]; group 6, mid dose 49.2 mg/kg): 50% | survival (COVID-19 [2]; group 7, high dose 98.4 mg/kg): 50% | Paw Volume Mean (paw edema; [6]): 1.697 mL | Paw Volume Mean (paw edema; [7]): 1.402 mL | Paw Volume Mean (paw edema; [8]): 1.225 mL | body temperature (Mean) (LPS-induced fever; [5]): 38.31 | body temperature (Mean) (LPS-induced fever; T = 90 min): 37.57 | body temperature (Mean) (LPS-induced fever; T = 180 min): 36.86 | body temperature (Mean) (LPS-induced fever; T = 270 min): 36.63 | survival ([3]; group 5, low dose 24.6 mg/kg): 50% | survival ([3]; group 6, mid dose 49.2 mg/kg): 50% | survival ([3]; group 7, high dose 98.4 mg/kg): 40% | survival (MRSA; group 5, low dose 24.6 mg/kg): 40% | survival (MRSA; group 6, mid dose 49.2 mg/kg): 60% | survival (MRSA; group 7, high dose 98.4 mg/kg): 50%

Cl.O=C(Cc1ccccc1Nc1c(Cl)cccc1Cl)OCC1CCCN1 (stereo not shown) [Example 1]
Paw Volume Mean (paw edema; [6]): 1.719 mL | Paw Volume Mean (paw edema; [7]): 1.314 mL | Paw Volume Mean (paw edema; [8]): 1.245 mL | body temperature (Mean) (LPS-induced fever; [5]): 38.38 | body temperature (Mean) (LPS-induced fever; T = 90 min): 37.10 | body temperature (Mean) (LPS-induced fever; T = 180 min): 36.42 | body temperature (Mean) (LPS-induced fever; T = 270 min): 36.41 | survival (H1N1 virus; group 5, low dose 24.6 mg/kg): 70% | survival (H1N1 virus; group 6, mid dose 49.2 mg/kg): 60% | survival (H1N1 virus; group 7, high dose 98.4 mg/kg): 50% | The cumulative amount of test compounds ([4]; 1 h): 0.48 mg | The cumulative amount of test compounds ([4]; 2 h): 0.99 mg | The cumulative amount of test compounds ([4]; 4 h): 2.03 mg | The cumulative amount of test compounds ([4]; 8 h): 4.09 mg
